Data taken from patent publication US20250345384A1, “STABLE CYCLODEXTRIN FREE CARFILZOMIB FORMULATION” (AMGEN INC., priority 2020, published 2025).
Converted amounts (≈) assume the structure as drawn.

Legend:
[1] = Visual comparison of carfilzomib in water, cyclodextrin and cyclodextrin-free formulations (FIG. 2); assay type: physicochemical; conditions: CFZ-API concentration of 2 mg/mL
Text: Carfilzomib (CFZ) is a proteasomal inhibitor and active ingredient of KYPROLIS®, a lyophilized drug product which is for the treatment of multiple myeloma. The current commercial formulation of KYPROLIS contains CAPTISOL®, which is a cyclodextrin used to help solubility the CFZ-API. The present invention provides a stable, cyclodextrin-free formulations for CFZ-API in an aqueous solution which is suitable for injection. FIG. 2 illustrates (a) insoluble CFZ-API in water (b) current commercial KYPROLIS formulation containing CAPTISOL (middle vial); and (c) the cyclodextrin free chlorobutanol formulation of the invention (right vial). Each sample contains CFZ-API concentration of 2 mg/mL.

[2] = physchem; conditions: pH 7, water

Q: With `CC(C)C[C@H](NC(=O)[C@H](CCc1ccccc1)NC(=O)CN1CCOCC1)C(=O)N[C@@H](Cc1ccccc1)C(=O)N[C@@H](CC(C)C)C(=O)[C@@]1(C)CO1` [CFZ-API, Carfilzomib] as the compound, how does the “Visual solubility in water” value [1] read?
A: The value was “insoluble”.

Q: And the solubility [2]?
A: Its solubility is 2 µg/mL (≈ 2.78 µM).
